Source: BindingDB's records for doi:10.1021/jm00120a002 (Merck Sharp & Dohme Research Laboratories, 1989)

Experiment: Half-maximal inhibition of [125I]gastrin binding to guinea pig gastric glands

Going from CCCCCc1ccc(C(=O)N[C@H]2N=C(c3ccccc3F)c3ccccc3N(C)C2=O)cc1 to CN1C(=O)[C@@H](NC(=O)c2ccc(Br)cc2)N=C(c2ccccc2F)c2ccccc21, the IC50 falls from 60 µM to 0.68 µM (88-fold).

Going from N#Cc1ccc(C(=O)NC2N=C(c3ccccc3)c3ccccc3NC2=O)cc1 (stereo not given) [4-Cyano-N-(2-oxo-5-phenyl-2,3-dihydro-1H-benzo[e][1,4]diazepin-3-yl)-benzamide] to O=C(NC1N=C(c2ccccc2)c2ccccc2NC1=O)c1ccc(Cl)cc1 (stereo not given), the IC50 falls from 22 µM to 8.2 µM (2.7-fold).

Going from CN1C(=O)[C@H](NC(=O)[C@H](N)Cc2ccccc2)N=C(c2ccccc2)c2ccccc21 [(R)-2-amino-N-((R)-1-methyl-2-oxo-5-phenyl-2,3-dihydro-1H-benzo[e][1,4]diazepin-3-yl)-3-phenylpropanamide] to CN1C(=O)C(NC(=O)[C@@H](Cc2ccccc2)NC(=O)OC(C)(C)C)N=C(c2ccccc2)c2ccccc21 (stereo not given in full), the IC50 falls from 55 µM to 26 µM (2.1-fold).

Compared with O=C(NC1N=C(c2ccccc2F)c2ccccc2NC1=O)c1ccc([N+](=O)[O-])cc1 (stereo not given), Cc1ccc(C(=O)NC2N=C(c3ccccc3F)c3ccccc3NC2=O)cc1 (stereo not given) is lower in IC50: over 10 µM for the first, 5 µM for the second. The second is the more potent here.

Compared with CN1C(=O)C(NC(=O)c2cc3ccccc3n2C)N=C(c2ccccc2F)c2ccccc21 (stereo not given), Cn1c(C(=O)NC2N=C(c3ccccc3F)c3ccccc3NC2=O)cc2ccccc21 (stereo not given) is 3.9-fold higher in IC50: 1.6 µM for the first, 6.3 µM for the second. The first is the more potent here.

First: O=C(NC1N=C(c2ccccc2F)c2ccccc2NC1=O)c1cc2ccccc2o1 (stereo not given)
Second: O=C(NC1N=C(c2ccccc2F)c2ccccc2NC1=O)c1ccccc1Cl (stereo not given) [2-Chloro-N-[5-(2-fluoro-phenyl)-2-oxo-2,3-dihydro-1H-benzo[e][1,4]diazepin-3-yl]-benzamide: 0.1C4H8O2]
The IC50 of the first is 1.6-fold lower: 11 µM for the first, 18 µM for the second. The first is the more potent here.

First: CN1C(=O)[C@H](NC(=O)c2ccccc2Cl)N=C(c2ccccc2F)c2ccccc21
Second: CN1C(=O)[C@@H](NC(=O)c2ccccc2I)N=C(c2ccccc2F)c2ccccc21
The IC50 of the first is 3-fold lower: 3.7 µM for the first, 11 µM for the second. The first is the more potent here.

Compared with O=C(O)CN1C(=O)C(NC(=O)c2cc3ccccc3[nH]2)N=C(c2ccccc2)c2ccccc21 (stereo not given) [CCK antagonist synthetic 20], O=C(O)CN1C(=O)C(NC(=O)c2cc3ccccc3[nH]2)N=C(c2ccccc2F)c2ccccc21 (stereo not given) is 1.7-fold lower in IC50: 0.65 µM for the first, 0.39 µM for the second. The second is the more potent here.

O=C(NC1N=C(c2ccccc2F)c2ccccc2NC1=O)c1cc2cc(Br)ccc2[nH]1 (stereo not given) and O=C(NC1N=C(c2ccccc2F)c2ccccc2NC1=O)c1cc2cc(F)ccc2[nH]1 (stereo not given) [5-Fluoro-1H-indole-2-carboxylic acid [5-(2-fluoro-phenyl)-2-oxo-2,3-dihydro-1H-benzo[e][1,4]diazepin-3-yl]-amide: 0.23CHCL3] cannot be ordered by IC50: over 10 µM for the first, over 10 µM for the second.

First: CN1C(=O)C(NC(=O)c2ccccc2Cl)N=C(c2ccccc2)c2ccccc21 (stereo not given)
Second: CN1C(=O)[C@H](NC(=O)c2ccccc2Cl)N=C(c2ccccc2)c2ccccc21
The IC50 of the first is 4-fold higher: 30 µM for the first, 7.5 µM for the second. The second is the more potent here.

First: CCOC(=O)CN1C(=O)C(NC(=O)c2cc3ccccc3[nH]2)N=C(c2ccccc2F)c2ccccc21 (stereo not given)
Second: CCOC(=O)CN1C(=O)C(NC(=O)c2ccccc2Cl)N=C(c2ccccc2F)c2ccccc21 (stereo not given) [[3-(2-Chloro-benzoylamino)-5-(2-fluoro-phenyl)-2-oxo-2,3-dihydro-benzo[e][1,4]diazepin-1-yl]-acetic acid ethyl ester]
The IC50 of the first is 11-fold lower: 0.12 µM for the first, 1.3 µM for the second.

O=C(NC1N=C(c2ccccc2F)c2ccccc2NC1=O)c1ccc[nH]1 (stereo not given) and O=C(NC1N=C(c2ccccc2F)c2ccccc2NC1=O)c1ccsc1 (stereo not given) cannot be ordered by IC50: 25 µM for the first, over 10 µM for the second.

First: O=C(O)CN1C(=O)C(NC(=O)c2ccc(Cl)cc2)N=C(c2ccccc2F)c2ccccc21 (stereo not given)
Second: O=C(NC1N=C(c2ccccc2F)c2ccccc2NC1=O)c1ccc(Cl)cc1 (stereo not given)
The IC50 of the first is 1.7-fold lower: 8.2 µM for the first, 14 µM for the second.

First: CN1C(=O)[C@H](NC(=O)C2CCCCC2)N=C(c2ccccc2)c2ccccc21
Second: CC(C)C(=O)N[C@H]1N=C(c2ccccc2)c2ccccc2N(C)C1=O
The IC50 of the first is 49-fold lower: 1.5 µM for the first, 73 µM for the second. The first is the more potent here.

CC(C)(C)OC(=O)N[C@H](Cc1c[nH]c2ccccc12)C(=O)NC1N=C(c2ccccc2)c2ccccc2NC1=O (stereo not given in full) and CC(C)(C)OC(=O)N[C@H](Cc1ccccc1)C(=O)NC1N=C(c2ccccc2)c2ccccc2NC1=O (stereo not given in full) cannot be ordered by IC50: over 100 µM for the first, over 100 µM for the second.

COc1ccc2[nH]c(C(=O)NC3N=C(c4ccccc4F)c4ccccc4NC3=O)cc2c1 (stereo not given) and O=C(NC1N=C(c2ccccc2F)c2ccccc2NC1=O)c1cc2cc(O)ccc2[nH]1 (stereo not given) [5-Hydroxy-1H-indole-2-carboxylic acid [5-(2-fluoro-phenyl)-2-oxo-2,3-dihydro-1H-benzo[e][1,4]diazepin-3-yl]-amide] cannot be ordered by IC50: over 10 µM for the first, 29 µM for the second.

First: CN1C(=O)C(NC(=O)c2ccc(Br)cc2)N=C(c2ccccc2)c2ccccc21 (stereo not given) [4-Bromo-N-(1-methyl-2-oxo-5-phenyl-2,3-dihydro-1H-benzo[e][1,4]diazepin-3-yl)-benzamide:0.05C3H6O]
Second: CN1C(=O)[C@@H](NC(=O)c2ccc(Br)cc2)N=C(c2ccccc2)c2ccccc21
The IC50 of the first is 2.1-fold higher: 1.7 µM for the first, 0.8 µM for the second. The second is the more potent here.

First: CN1C(=O)C(NC(=O)c2cccc(I)c2)N=C(c2ccccc2F)c2ccccc21 (stereo not given)
Second: CN1C(=O)[C@@H](NC(=O)c2cccc(Br)c2)N=C(c2ccccc2F)c2ccccc21
The IC50 of the first is 1.9-fold lower: 0.39 µM for the first, 0.75 µM for the second. The first is the more potent here.

Going from O=C(NC1N=C(c2ccccc2F)c2ccccc2NC1=O)c1ccc(C(F)(F)F)cc1 (stereo not given) to O=C(NC1N=C(c2ccccc2)c2ccccc2NC1=O)c1ccc(C(F)(F)F)cc1 (stereo not given), the IC50 rises from 9.5 µM to 36 µM (3.8-fold).

Going from CCCc1ccc(C(=O)NC2N=C(c3ccccc3)c3ccccc3NC2=O)cc1 (stereo not given) to O=C(NC1N=C(c2ccccc2)c2ccccc2NC1=O)c1ccc(O)cc1 (stereo not given), the IC50 falls from 80 µM to 31 µM (2.6-fold). The second is the more potent here.

First: CN1C(=O)C(NC(=O)c2ccsc2)N=C(c2ccccc2F)c2ccccc21 (stereo not given)
Second: CN1C(=O)[C@@H](NC(=O)c2ccc(I)cc2)N=C(c2ccccc2F)c2ccccc21
The IC50 of the first is 21-fold higher: 11 µM for the first, 0.53 µM for the second.

Going from O=C(NC1N=C(c2ccccc2)c2ccccc2NC1=O)c1cc2ccccc2[nH]1 (stereo not given) to O=C(NC1N=C(c2ccccc2)c2ccccc2NC1=O)c1c[nH]c2ccccc12 (stereo not given), the IC50 rises from 4 µM to 18 µM (4.5-fold). The first is the more potent here.

First: CN1C(=O)[C@@H](NC(=O)c2ccc(C(F)(F)F)cc2)N=C(c2ccccc2F)c2ccccc21
Second: CN1C(=O)C(NC(=O)c2ccc(C(C)(C)C)cc2)N=C(c2ccccc2F)c2ccccc21 (stereo not given)
The IC50 of the first is 15-fold lower: 0.44 µM for the first, 6.4 µM for the second. The first is the more potent here.

O=C(NC1N=C(c2ccccc2F)c2ccccc2NC1=O)c1ncc2ccccc2n1 (stereo not given) and O=C1Nc2ccccc2C(c2ccccc2F)=NC1NC(=O)C(O)c1ccccc1 (stereo not given) cannot be ordered by IC50: over 10 µM for the first, over 10 µM for the second.

First: O=C(NC1N=C(c2ccccc2)c2ccccc2NC1=O)c1ccc2ccccc2c1 (stereo not given)
Second: O=C(NC1N=C(c2ccccc2)c2ccccc2NC1=O)c1cccc2ccccc12 (stereo not given)
The IC50 of the first is 2.1-fold lower: 14 µM for the first, 29 µM for the second. The first is the more potent here.

First: CN1C(=O)C(NC(=O)[C@H](Cc2ccccc2)NC(=O)OC(C)(C)C)N=C(c2ccccc2F)c2ccccc21 (stereo not given in full)
Second: CN1C(=O)C(NC(=O)C(Cc2ccccc2)NC(=O)OC(C)(C)C)N=C(c2ccccc2F)c2ccccc21 (stereo not given)
The IC50 of the first is 2.4-fold lower: 1.2 µM for the first, 2.9 µM for the second. The first is the more potent here.

First: O=C(NC1N=C(c2ccccc2F)c2ccccc2N(C(=O)c2ccc(Cl)cc2)C1=O)c1ccc(Cl)cc1 (stereo not given)
Second: CN1C(=O)[C@@H](NC(=O)c2ccc(C#N)cc2)N=C(c2ccccc2F)c2ccccc21
The IC50 of the first is 16-fold lower: 0.55 µM for the first, 9 µM for the second.

First: CN1C(=O)C(N(C)C(=O)c2ccccc2Cl)N=C(c2ccccc2)c2ccccc21 (stereo not given)
Second: CN1C(=O)[C@@H](NC(=O)c2ccccc2I)N=C(c2ccccc2)c2ccccc21
The IC50 of the first is higher: over 100 µM for the first, 38 µM for the second. The second is the more potent here.

O=C(NC1N=C(c2ccccc2)c2ccccc2NC1=O)c1ccc(Cl)c(Cl)c1 (stereo not given) and O=C(NC1N=C(c2ccccc2)c2ccccc2NC1=O)c1cccc(Cl)c1 (stereo not given) [3-Chloro-N-(2-oxo-5-phenyl-2,3-dihydro-1H-benzo[e][1,4]diazepin-3-yl)-benzamide:0.5CHCl3] are within 1.5-fold of each other in IC50: 25 µM for the first, 19 µM for the second.

First: O=C(NC1N=C(c2ccccc2F)c2ccccc2NC1=O)c1cc2cc(Cl)ccc2[nH]1 (stereo not given) [5-Chloro-1H-indole-2-carboxylic acid [5-(2-fluoro-phenyl)-2-oxo-2,3-dihydro-1H-benzo[e][1,4]diazepin-3-yl]-amide]
Second: CN1C(=O)[C@H](NC(=O)c2cc3ccccc3[nH]2)N=C(c2ccccc2F)c2ccccc21
The IC50 of the first is 83-fold higher: 20 µM for the first, 0.24 µM for the second.

CSc1ccc(C(=O)NC2N=C(c3ccccc3)c3ccccc3NC2=O)cc1 (stereo not given) and O=C(NC1N=C(c2ccccc2)c2ccccc2NC1=O)c1ccc(F)cc1 (stereo not given) are within 1.5-fold of each other in IC50: 8 µM for the first, 9.4 µM for the second.

Compared with CN1C(=O)CN=C(c2ccccc2)c2ccccc21, CN1C(=O)[C@@H](NC(=O)C(C)(C)C)N=C(c2ccccc2)c2ccccc21 is 7.2-fold lower in IC50: 94 µM for the first, 13 µM for the second. The second is the more potent here.

First: O=C(NC1N=C(c2ccccc2)c2ccccc2NC1=O)c1ccccc1Cl (stereo not given) [2-Chloro-N-(2-oxo-5-phenyl-2,3-dihydro-1H-benzo[e][1,4]diazepin-3-yl)-benzamide. 0.02CHCl3]
Second: O=C(NC1N=C(c2ccccc2)c2ccccc2NC1=O)C1Cc2ccccc2N1 (stereo not given)
The IC50 of the first is 2.1-fold lower: 52 µM for the first, 110 µM for the second.

Compared with O=C(CCc1c[nH]c2ccccc12)NC1N=C(c2ccccc2)c2ccccc2NC1=O (stereo not given), O=C1Nc2ccccc2C(c2ccccc2)=NC1NCCc1c[nH]c2ccccc12 (stereo not given) is higher in IC50: 17 µM for the first, over 100 µM for the second. The first is the more potent here.

O=C(NC1N=C(c2ccccc2)c2ccccc2NC1=O)c1cc(Cl)cc(Cl)c1 (stereo not given) and O=C(NC1N=C(c2ccccc2)c2ccccc2NC1=O)c1ccc(-c2ccccc2)cc1 (stereo not given) cannot be ordered by IC50: 180 µM for the first, over 100 µM for the second.

First: O=C(/C=C/c1ccccc1)NC1N=C(c2ccccc2F)c2ccccc2NC1=O (stereo not given)
Second: O=C1Nc2ccccc2C(c2ccccc2F)=NC1NCc1cc2ccccc2[nH]1 (stereo not given)
The IC50 of the first is lower: 3.8 µM for the first, over 10 µM for the second.

Compared with CCOC(=O)CN1C(=O)C(NC=O)N=C(c2ccccc2)c2ccccc21 (stereo not given), CN1C(=O)C(NC(=O)c2ccc(Cl)cc2N)N=C(c2ccccc2)c2ccccc21 (stereo not given) [2-Amino-4-chloro-N-(1-methyl-2-oxo-5-phenyl-2,3-dihydro-1H-benzo[e][1,4]diazepin-3-yl)-benzamide.H2O] is 13-fold lower in IC50: 25 µM for the first, 1.9 µM for the second. The second is the more potent here.

First: CN1C(=O)[C@H](NC(=O)c2ccc(C(F)(F)F)cc2)N=C(c2ccccc2)c2ccccc21
Second: CN1C(=O)[C@@H](NC(=O)/C=C/c2ccccc2)N=C(c2ccccc2)c2ccccc21
The IC50 of the first is 23-fold higher: 4.2 µM for the first, 0.18 µM for the second. The second is the more potent here.

Going from CN1C(=O)C(NC(=O)c2cc3ccccc3[nH]2)N=C(c2ccccc2F)c2ccccc21 (stereo not given) [1H-Indole-2-carboxylic acid [5-(2-fluoro-phenyl)-1-methyl-2-oxo-2,3-dihydro-1H-benzo[e][1,4]diazepin-3-yl]-amide] to CN1C(=O)[C@@H](NC(=O)c2cc3ccccc3[nH]2)N=C(c2ccccc2F)c2ccccc21, the IC50 falls from 0.19 µM to 0.028 µM (6.8-fold). The second is the more potent here.

Going from O=C(Cc1cccc2sccc12)NC1N=C(c2ccccc2F)c2ccccc2NC1=O (stereo not given) to CN1C(=O)C(NC(=O)c2ccc(Cl)cc2)[N+]([O-])=C(c2ccccc2F)c2ccccc21 (stereo not given), the IC50 falls from 3.9 µM to 2.4 µM (1.6-fold).
